This is an account of results in publication PMC9030691, “Toxicokinetics of β-Amanitin in Mice and In Vitro Drug–Drug Interaction Potential” (Pharmaceutics, 2022).

Where two headings read alike, the source gives them in different places.

For one data set, the system named is rats. Conditions: intraperitoneal injection; cited from earlier work. From the text: (§1) The Amanitaceae family is responsible for nearly 95% of all fatal mushroom poisonings, and amatoxins are the primary threats to human life. The content of amatoxins varies by Amanita species, but α- and β-amanitin are the most abundant substances. […] Among amatoxins, α-amanitin i ...

A further data set concerns mice. The settings on record: intraperitoneal injection; cited from earlier work.
Excerpt: as §1

Another data set concerns humans. The settings on record: oral administration; cited from earlier work. Here is the method:
Amanita phalloides poisoning can cause acute hepatitis, leading to the rapid development of liver insufficiency and ultimately coma and death. Nephrotoxicity is reported less frequently. Yilmaz et al. reported that an oral intake of approximately 50 g of fresh Amanita phalloides, representing a dose of 0.32 mg/kg of amatoxins, can be lethal. A few reports are available that describe the toxicokinetics of α- and β-amanitin after the oral administration of toadstool extract to beagle dogs and rats. In addition, the toxicokinetics of α-amanitin were investi ... || The Amanitaceae family is responsible for nearly 95% of all fatal mushroom poisonings, and amatoxins are the primary threats to human life. The content of amatoxins varies by Amanita species, but α- and β-amanitin are the most abundant substances. […] Among amatoxins, α-amanitin i ...

The target of another data set is T1, CYP2C19 (Homo sapiens, UniProt P33261).
T1 construct: from tissue; host or cells: ultrapooled human liver microsomes
T1 sequence (P33261 whole entry): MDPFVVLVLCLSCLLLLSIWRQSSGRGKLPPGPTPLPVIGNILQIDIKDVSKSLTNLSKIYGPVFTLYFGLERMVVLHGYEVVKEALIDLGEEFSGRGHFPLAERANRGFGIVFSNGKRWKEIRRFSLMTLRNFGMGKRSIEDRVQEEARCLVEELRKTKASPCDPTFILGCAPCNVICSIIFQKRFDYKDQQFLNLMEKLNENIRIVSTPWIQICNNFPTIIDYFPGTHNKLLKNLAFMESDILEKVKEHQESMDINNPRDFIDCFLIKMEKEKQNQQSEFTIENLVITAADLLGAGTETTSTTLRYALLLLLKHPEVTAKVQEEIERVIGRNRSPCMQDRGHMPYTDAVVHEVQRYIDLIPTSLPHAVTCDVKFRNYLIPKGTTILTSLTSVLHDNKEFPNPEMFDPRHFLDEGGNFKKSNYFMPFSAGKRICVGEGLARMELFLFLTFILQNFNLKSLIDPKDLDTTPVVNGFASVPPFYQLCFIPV
Put plainly: CYP2C19 inhibition in human liver microsomes. It is filed as in vitro ADME. The settings on record: ultrapooled human liver microsomes 0.2 mg/mL, 100 μM [S]-mephenytoin, β-amanitin 0.1–100 μM, pH 7.4, 37 °C, 15 min, LC-MS/MS, n = 3, read-out: IC50, CYP2C19 [S]-mephenytoin 4′-hydroxylase. Here is the method:
(§2) β-amanitin inhibition (IC50 values) of CYP1A2, CYP2A6, CYP2B6, CYP2C8, CYP2C9, CYP2C19, CYP2D6, and CYP3A4 enzyme activities in HLMs were evaluated using LC-MS/MS and CYP substrates as previously described. Each incubation mixture was made up to a volume of 100 μL including HLMs (0.2 mg/mL), 50 mM potassium phosphate buffer (pH 7.4), 1.0 mM NADPH, 10 mM magnesium chloride, various concentrations of β-amanitin (0.1–100 μM), a cocktail of seven CYP probe substrates (50 μM phenacetin for CYP1A2, 2.5 μM coumarin for CYP2A6, 2 μM amodiaquine for CYP2C8, 10 μM diclofenac for CYP2C9, 100 μM [S]-mephenytoin for CYP2C19, 5 μM bufuralol for CYP2D6, and 2.5 μM midazolam for CYP3A4 in acetonitrile), or 50 μM bupropion for CYP2B6. The reactions were initiated with NADPH followed by incubation in a shaking water bath at 37 °C for 15 min with or without 30 min preincubation with NADPH. Reactions were stopped with 50 μL of ice-cold methanol containing ^13C2, ^15N-acetaminophen and d9-1′-hydroxybufuralol (ISs). Incubation mixtures were centrifuged at 13,000× g for 8 min at 4 °C. An aliquot (5 μL) of the supernatant from the reaction mixture was analyzed by the previous LC-MS/MS method.

The next data set addresses T2, CYP2B6 (Homo sapiens, UniProt P20813).
T2 construct: from tissue; host or cells: ultrapooled human liver microsomes
T2 sequence (P20813 1-491): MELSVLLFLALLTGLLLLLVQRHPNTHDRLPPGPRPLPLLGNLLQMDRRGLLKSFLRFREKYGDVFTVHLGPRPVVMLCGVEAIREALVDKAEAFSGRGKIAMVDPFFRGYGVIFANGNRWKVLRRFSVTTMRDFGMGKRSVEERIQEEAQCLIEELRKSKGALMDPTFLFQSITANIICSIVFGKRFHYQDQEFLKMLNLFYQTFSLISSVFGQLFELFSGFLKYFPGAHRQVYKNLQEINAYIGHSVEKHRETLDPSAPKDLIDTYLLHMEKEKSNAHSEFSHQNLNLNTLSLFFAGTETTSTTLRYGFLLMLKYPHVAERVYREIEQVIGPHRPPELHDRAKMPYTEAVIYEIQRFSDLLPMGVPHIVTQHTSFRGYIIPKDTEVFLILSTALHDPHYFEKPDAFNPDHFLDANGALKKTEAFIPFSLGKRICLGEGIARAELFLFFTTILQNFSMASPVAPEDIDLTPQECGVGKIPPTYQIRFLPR
Put plainly: CYP2B6 inhibition in human liver microsomes. The settings on record: ultrapooled human liver microsomes 0.2 mg/mL, 50 μM bupropion, β-amanitin 0.1–100 μM, pH 7.4, 37 °C, 15 min, LC-MS/MS, n = 3, read-out: IC50, CYP2B6 bupropion hydroxylase. It counts as in vitro ADME. Here is the method: as §2

The conditions of data set [1]: LC-HRMS, cited from earlier work. Here is the method:
Concentrations of β-amanitin in biological samples were evaluated following our previous methodology. The standard calibration curves for β-amanitin in mouse plasma ranged from 0.5 to 500 ng/mL and were linear, with a correlation coefficient of 0.9952. The inter- and intra-day accuracy and precision fell within the acceptance criteria (3.1–14.6% of coefficients of variation (CVs) and 92.5–115.0% of accuracy). The extraction recovery and matrix effect of this analytical method were 82.8–88.9% and 93.0–98.6%. Three freeze–thaw cycles (88.7–97.2% accuracy with CVs of 3.6–14.3%), short-term ...

For the next data set, the target named is T3, CYP2A6 (Homo sapiens, UniProt P11509).
T3 construct: from tissue; host or cells: ultrapooled human liver microsomes
T3 sequence (P11509 whole entry): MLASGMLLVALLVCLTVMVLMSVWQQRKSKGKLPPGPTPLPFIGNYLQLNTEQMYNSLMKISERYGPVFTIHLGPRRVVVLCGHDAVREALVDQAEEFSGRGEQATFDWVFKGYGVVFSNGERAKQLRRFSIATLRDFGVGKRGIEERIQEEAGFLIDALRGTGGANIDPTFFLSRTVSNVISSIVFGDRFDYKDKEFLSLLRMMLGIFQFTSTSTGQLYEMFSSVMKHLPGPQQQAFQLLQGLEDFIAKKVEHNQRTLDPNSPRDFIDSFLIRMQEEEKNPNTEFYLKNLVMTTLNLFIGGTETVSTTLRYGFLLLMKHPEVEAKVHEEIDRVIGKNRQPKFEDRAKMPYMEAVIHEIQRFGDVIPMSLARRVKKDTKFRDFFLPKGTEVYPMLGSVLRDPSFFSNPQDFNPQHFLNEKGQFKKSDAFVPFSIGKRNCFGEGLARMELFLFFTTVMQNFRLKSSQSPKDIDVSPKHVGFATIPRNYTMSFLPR
Put plainly: CYP2A6 inhibition in human liver microsomes. The settings on record: ultrapooled human liver microsomes 0.2 mg/mL, 2.5 μM coumarin, β-amanitin 0.1–100 μM, pH 7.4, 37 °C, 15 min, LC-MS/MS, n = 3, read-out: IC50, CYP2A6 coumarin 7-hydroxylase. It counts as in vitro ADME. On the procedure: as §2

The mark [2] stands for this setting: with 30 min NADPH preincubation.

Regarding α-amanitin [reference compound], the results for the Lethal dose with rats, in the data set on mice and in the data set on humans were 4.0 mg/kg, 0.3 to 0.6 mg/kg and 0.1 mg/kg, respectively.
Regarding `CC[C@H](C)[C@@H]1NC(=O)CNC(=O)[C@@H]2Cc3c([nH]c4cc(O)ccc34)[S@+]([O-])C[C@H](NC(=O)CNC1=O)C(=O)N[C@@H](CC(=O)O)C(=O)N1C[C@H](O)C[C@H]1C(=O)N[C@@H]([C@@H](C)[C@@H](O)CO)C(=O)N2` [β-amanitin], the IC50 on CYP2C19 (setting [2]) is more than 100 µM; on CYP2C19 (without NADPH preincubation), more than 100 µM; at CYP2B6 (setting [2]) it was 34.8 µM; at CYP2B6 (without NADPH preincubation), 38 µM; on CYP2A6 (setting [2]), 80.1 µM; at CYP2A6 (without NADPH preincubation), 93.9 µM. The “Stability, short-term storage for 2 h on ice (accuracy)” value in data set [1] (mouse plasma, CVs of 3.6–7.4%) was 94.7–97.9%. In addition, the “Stability, three freeze–thaw cycles (accuracy)” value in data set [1] (mouse plasma, CVs of 3.6–14.3%) is 88.7–97.2%. The “Stability, long-term storage for 2 weeks at −80 °C (accuracy)” value in data set [1] (mouse plasma, CVs of 3.7–9.1%) is 90.4–105.0%. Moreover, the “Post-preparation stability for 24 h in 4 °C autosampler (accuracy)” value in data set [1] (processed mouse plasma samples, CVs of 6.8–7.5%) is 90.7–94.1%.
